“Also recorded” adds a separate entry of the source. Counter-ions that a name gives are not always drawn. Like-named read-outs stand apart in the source and are kept apart here.
Experiments:
[1] = system: A/WSN/33 strain of IAV; format: cell-based, influenza A virus
[2] = system: A/WSN/33 strain of IAV; format: cell-based, influenza A virus; remark: listed apart in the source
[3] = system: A/Hong Kong/8/68 H3N2; format: cell-based, influenza A virus
[4] = system: A/Hong Kong/8/68 H3N2; format: cell-based, influenza A virus; remark: listed apart in the source
[5] = system: HCoV-NL63 in Calu-3 cells; details: reported; cited from earlier work
[6] = system: HCoV-NL63; format: cell-based; details: 20 μM CM vs untreated/vehicle, 48 and 96 h p.i., particularly MOI=0.005, qualitative, scatter limits statistical significance
[7] = system: IAV in human primary bronchial epithelial cells; details: reported; cited from earlier work

SMILES	viral titers (qRT-PCR) [1]	effect of oseltamivir on barrier function (TEER) [2]	virus-induced disruption to barrier function and epithelial tight junction formation [3]	influenza replication (viral copies, RT-qPCR) [4]	viral copies in apical wash in response to oseltamivir dose [4]	infection by HCoV-NL63 in Calu-3 cells [5]	viral copy number (RT-qPCR, apical wash) [6]	viral copy number (RT-qPCR, apical wash) ([6]; listed as CM)	infection by IAV in human primary bronchial epithelial cells [7]
CCC(CC)O[C@@H]1C=C(C(=O)O)C[C@H](N)[C@H]1NC(C)=O [oseltamivir, Oseltamivir carboxylate]	reduction in viral titers	protective effect on barrier function	prevented virus-induced disruption to barrier function and epithelial tight junction formation	significantly reduced influenza replication	marked decrease in viral copies; also recorded: reduce viral copies	–	–	–	–
CN(C)C(=O)COC(=O)Cc1ccc(OC(=O)c2ccc(NC(=N)N)cc2)cc1 [camostat mesylate, Camostat mesylate]	–	–	–	–	–	partially block infection	observed reduction in viral copies	reduces viral copy number	partially block infection
